From US20160090556A1, “PRODUCTS COMPRISING MALODOR REDUCTION MATERIALS” (The Procter & Gamble Company, priority 2014, published 2016)
Read-outs that look alike come from different tables or passages of the source.

Assay: Liquid dish neat product liquid-air partition coefficient
Format: physicochemical
Settings: for Comment Code: Log of liquid dish neat product liquid-air partition coefficient: code letters K, L
[1] = class code letter within Comment Code

Structure (SMILES)	Log of liquid dish neat product liquid-air partition coefficient (Comment Code K/L) [1]	Log of liquid dish neat product liquid-air partition coefficient (Comment Code K/L)	Comment Code: Log of liquid dish neat product liquid-air partition coefficient
CCCCCCC#CC(OC)OC [Material 3]	K (Log of liquid dish neat product liquid-air partition coefficient greater than or equal to −7)	–	–
CC1=CC2CC(C3OCCO3)C1CC2C(C)C (stereo not shown) [Material 912]	–	K (Log of liquid dish neat product liquid-air partition coefficient greater than or equal to −7)	–
CC(CO)C1CCCCCCCCCCC1 (stereo not shown) [Material 252]	K (Log of liquid dish neat product liquid-air partition coefficient greater than or equal to −7)	–	–
C=CCCC(=O)/C=C/C1C(C)=CCCC1(C)C (stereo not shown) [Material 559]	K (Log of liquid dish neat product liquid-air partition coefficient greater than or equal to −7)	–	–
CC1=CCCC(C)=CCC(C)(C)C=CC1 [Material 706]	–	K (Log of liquid dish neat product liquid-air partition coefficient greater than or equal to −7)	–
O=C1CCCCCCCCCC/C=C/CCO1 [Material 289]	K (Log of liquid dish neat product liquid-air partition coefficient greater than or equal to −7)	–	–
OCC=Cc1ccccc1 [Material 555]	K (Log of liquid dish neat product liquid-air partition coefficient greater than or equal to −7)	–	–
CCC=CCC1C(=O)CCC1CC(=O)OC (stereo not shown) [Material 112]	K (Log of liquid dish neat product liquid-air partition coefficient greater than or equal to −7)	–	–
Cc1n[nH]cc1-c1ccccc1 [Material 808]	–	–	K (Log of liquid dish neat product liquid-air partition coefficient greater than or equal to −7)
CCC1=CCCC(C)(C)C12C=CC(C)O2 (stereo not shown) [Material 413]	K (Log of liquid dish neat product liquid-air partition coefficient greater than or equal to −7)	–	–
CNC(=O)C(C)(C(C)C)C(C)C [Material 846]	–	–	K (Log of liquid dish neat product liquid-air partition coefficient greater than or equal to −7)
CC(=O)/C=C/C1C(C)CCC(C)C1(C)C (stereo not shown) [Material 71]	K (Log of liquid dish neat product liquid-air partition coefficient greater than or equal to −7)	–	–
CCCCCCCCCCOC(=O)CC [Material 471]	K (Log of liquid dish neat product liquid-air partition coefficient greater than or equal to −7)	–	–
CCCOC(=O)[C@H](C)OC(C)(C)CC [Material 1030]	–	–	K (Log of liquid dish neat product liquid-air partition coefficient greater than or equal to −7)
C[C@@H]1CC[C@H]2C(C)(C)[C@H]3C[C@@]12CC1OC(C)(C)OC13C (stereo partly shown) [Material 674]	–	K (Log of liquid dish neat product liquid-air partition coefficient greater than or equal to −7)	K (Log of liquid dish neat product liquid-air partition coefficient greater than or equal to −7)
CC(=O)c1ccc2ccccc2c1 [Material 120]	K (Log of liquid dish neat product liquid-air partition coefficient greater than or equal to −7)	–	–
COc1ccc(CCC(C)=O)cc1 [Material 803]	–	K (Log of liquid dish neat product liquid-air partition coefficient greater than or equal to −7)	–
O=COCC=Cc1ccccc1 [Material 551]	K (Log of liquid dish neat product liquid-air partition coefficient greater than or equal to −7)	–	–
CC(C)=CCC/C(C)=C\COC=O [Material 59]	–	–	K (Log of liquid dish neat product liquid-air partition coefficient greater than or equal to −7)
CC(C)=CCCC(C)=CCCC(C)=CCO [Material 369]	K (Log of liquid dish neat product liquid-air partition coefficient greater than or equal to −7)	–	–
CC1(C)C2=C(CO)CCC(C)(C)C23CCC1C3 (stereo not shown) [Material 248]	–	–	K (Log of liquid dish neat product liquid-air partition coefficient greater than or equal to −7)
CCCCCCCCC=CC#N [Material 827]	–	K (Log of liquid dish neat product liquid-air partition coefficient greater than or equal to −7)	–
CC(C)C(=O)OC1CC2CC1C1C=CCC21 (stereo not shown) [Material 487]	K (Log of liquid dish neat product liquid-air partition coefficient greater than or equal to −7)	–	K (Log of liquid dish neat product liquid-air partition coefficient greater than or equal to −7)
COC1CCCCCCCCCCC1 [Material 9]	K (Log of liquid dish neat product liquid-air partition coefficient greater than or equal to −7)	–	–
CC1CCCCCCCCCCCCC(=O)C1 (stereo not shown) [Material 79]	K (Log of liquid dish neat product liquid-air partition coefficient greater than or equal to −7)	–	–

Structure (SMILES)	Log of liquid dish neat product liquid-air partition coefficient (Comment Code K/L) [1]	Log of liquid dish neat product liquid-air partition coefficient (Comment Code K/L)	Comment Code: Log of liquid dish neat product liquid-air partition coefficient
CC(C)C(=O)OC1CC2CCC1(C)C2(C)C (stereo not shown) [Material 603]	–	K (Log of liquid dish neat product liquid-air partition coefficient greater than or equal to −7)	K (Log of liquid dish neat product liquid-air partition coefficient greater than or equal to −7)
CC1=C(C/C=C(\C)C=O)C(C)(C)CCC1 [Material 602]	–	–	K (Log of liquid dish neat product liquid-air partition coefficient greater than or equal to −7)
C/C(=C/C#N)CCc1ccccc1 [Material 892]	–	K (Log of liquid dish neat product liquid-air partition coefficient greater than or equal to −7)	–
CC1(CO)CC1CC1CC2CC2(C)C1(C)C (stereo not shown) [Material 185]	K (Log of liquid dish neat product liquid-air partition coefficient greater than or equal to −7)	–	K (Log of liquid dish neat product liquid-air partition coefficient greater than or equal to −7)
CCCCCCCC(=O)OCCCCCC [Material 263]	K (Log of liquid dish neat product liquid-air partition coefficient greater than or equal to −7)	–	–
CC(C)=CCCC1=CCC(C#N)CC1 (stereo not shown) [Material 660]	–	K (Log of liquid dish neat product liquid-air partition coefficient greater than or equal to −7)	–
C=C(C)C1CC=C(CO)CC1 (stereo not shown) [Material 948]	–	K (Log of liquid dish neat product liquid-air partition coefficient greater than or equal to −7)	–
CC1OC(C)C2Cc3ccccc3C2O1 (stereo not shown) [Material 141]	K (Log of liquid dish neat product liquid-air partition coefficient greater than or equal to −7)	–	K (Log of liquid dish neat product liquid-air partition coefficient greater than or equal to −7)
CCOC(C)OCCc1ccccc1 (stereo not shown) [Material 415]	K (Log of liquid dish neat product liquid-air partition coefficient greater than or equal to −7)	–	–
C=CCOCCc1ccccc1 [Material 744]	–	–	K (Log of liquid dish neat product liquid-air partition coefficient greater than or equal to −7)
C/C=C(\C)C(=O)OCCc1ccccc1 [Material 960]	–	–	K (Log of liquid dish neat product liquid-air partition coefficient greater than or equal to −7)
CC(C)C1OC2(CCCC2)OCC1(C)C (stereo not shown) [Material 25]	K (Log of liquid dish neat product liquid-air partition coefficient greater than or equal to −7)	–	–
Cc1ccc(CC(C)C=O)cc1 (stereo not shown) [Material 742]	–	K (Log of liquid dish neat product liquid-air partition coefficient greater than or equal to −7)	–
CCC(=O)OC(C)(C)C1CC=C(C)CC1 (stereo not shown) [Material 686]	–	K (Log of liquid dish neat product liquid-air partition coefficient greater than or equal to −7)	–
CC(=O)CCc1ccc(O)cc1 [Material 1002]	–	–	K (Log of liquid dish neat product liquid-air partition coefficient greater than or equal to −7)
CCCCCCCCCCCC(OC)OC [Material 421]	K (Log of liquid dish neat product liquid-air partition coefficient greater than or equal to −7)	–	–
CC(C)C(=O)OC1CC2CCC1(C)C2(C)C (stereo not shown) [Material 229]	K (Log of liquid dish neat product liquid-air partition coefficient greater than or equal to −7)	–	K (Log of liquid dish neat product liquid-air partition coefficient greater than or equal to −7)
CC(C)=C1CCC(C)(O)CC1 (stereo not shown) [Material 318]	K (Log of liquid dish neat product liquid-air partition coefficient greater than or equal to −7)	–	–
COc1ccc(COC(C)=O)cc1 [Material 664]	–	–	K (Log of liquid dish neat product liquid-air partition coefficient greater than or equal to −7)
C=CC1(C)CCC(C(C)C)=CC1C(=C)C (stereo not shown) [Material 461]	K (Log of liquid dish neat product liquid-air partition coefficient greater than or equal to −7)	–	–
c1ccc(COCc2ccccc2)cc1 [Material 454]	–	–	K (Log of liquid dish neat product liquid-air partition coefficient greater than or equal to −7)
C=CCCCCCCCCC(=O)OCC [Material 381]	K (Log of liquid dish neat product liquid-air partition coefficient greater than or equal to −7)	–	–
CCCCCCCCCCCCCC(=O)OCC [Material 388]	K (Log of liquid dish neat product liquid-air partition coefficient greater than or equal to −7)	–	–
C=C(C)C1CC=C(C)C(OC(C)=O)C1 (stereo not shown) [Material 577]	–	K (Log of liquid dish neat product liquid-air partition coefficient greater than or equal to −7)	–
